Patent publication US6737383B1, “Herbicidal oxadiazolidines” (priority 1999, dated 2004)

Experiments:
bedstraw = test: Test B pre/postemergence bedstraw; assay type: in vivo, Galium aparine; details: Preemergence
Summary of the method: (§1)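 Herbicidal effect was estimated by eye on a ten-point control scale after plants spent twelve to sixteen days in a greenhouse following soil or foliar treatment. Foliar sprays targeted plants at one to four leaves; all doses were formulated in a non-phytotoxic solvent with surfactant.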

blackgrass = test: Test B pre/postemergence blackgrass; assay type: in vivo, Alopecurus myosuroides
Summary of the method: as §1

surinam grass = test: Test B pre/postemergence surinam grass; assay type: in vivo, Brachiaria decumbens
Summary of the method: as §1

cocklebur = test: Test B pre/postemergence cocklebur; assay type: in vivo, Xanthium strumarium
Summary of the method: as §1

corn = test: Test B pre/postemergence corn; assay type: in vivo, Zea mays
Summary of the method: as §1

crabgrass = test: Test B pre/postemergence crabgrass; assay type: in vivo, Digitaria sanguinalis
Summary of the method: as §1

giant foxtail = test: Test B pre/postemergence giant foxtail; assay type: in vivo, Setaria faberii
Summary of the method: as §1

morningglory = test: Test B pre/postemergence morningglory; assay type: in vivo, Ipomoea hederacea
Summary of the method: as §1

pigweed = test: Test B pre/postemergence pigweed; assay type: in vivo, Amaranthus retroflexus
Summary of the method: as §1

rape = test: Test B pre/postemergence rape; assay type: in vivo, Brassica napus
Summary of the method: as §1

soybean = test: Test B pre/postemergence soybean; assay type: in vivo, Glycine max
Summary of the method: as §1

sugar beet = test: Test B pre/postemergence sugar beet; assay type: in vivo, Beta vulgaris
Summary of the method: as §1

velvetleaf = test: Test B pre/postemergence velvetleaf; assay type: in vivo, Abutilon theophrasti
Summary of the method: as §1

wheat = test: Test B pre/postemergence wheat; assay type: in vivo, Triticum aestivum
Summary of the method: as §1

wild oat = test: Test B pre/postemergence wild oat; assay type: in vivo, Avena fatua
Summary of the method: as §1

purple nutsedge = test: Test B pre/postemergence purple nutsedge; assay type: in vivo, Cyperus rotundus
Summary of the method: as §1

rice = test: Test B flood test rice; assay type: in vivo, Oryza sativa
Summary of the method: (§2)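 Plants were grown to the 2-leaf stage before treatment with test chemical, then held in a greenhouse for twelve to sixteen days. Injury was visually rated against untreated controls on a 0–10 scale, where 0 is no effect and 10 is complete control.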

smallflower flatsedge = test: Test B flood test smallflower flatsedge; assay type: in vivo, Cyperus difformis
Summary of the method: as §2

duck salad = test: Test B flood test duck salad; assay type: in vivo, Heteranthera limosa
Summary of the method: as §2

bamyardgrass = test: Test B flood test barnyardgrass; assay type: in vivo, Echinochloa crus-galli
Summary of the method: as §2

[1] = Postemergence, Rate 62 g/ha, scale 0 to 10, 0 is no effect, 10 is complete control
[2] = Postemergence, Rate 125 g/ha, scale of 0 to 10 where 0 is no effect and 10 is complete control
[3] = Postemergence, Rate 250 g/ha, scale of 0 to 10, 0 is no effect, 10 is complete control
[4] = Postemergence, Rate 500 g/ha, scale of 0 to 10 where 0 is no effect and 10 is complete control
[5] = Preemergence, Rate 62 g/ha, scale 0 to 10 (0 no effect, 10 complete control)
[6] = Preemergence, Rate 125 g/ha, scale of 0 to 10 where 0 is no effect and 10 is complete control
[7] = Preemergence, Rate 500 g/ha, scale of 0 to 10 where 0 is no effect and 10 is complete control
[8] = Rate 62 g/ha, flood test species, Pre-emergence, visual evaluation after twelve to sixteen days
[9] = Rate 125 g/ha, under heading Pre-emergence, flood test species, visual evaluation after twelve to sixteen days
[10] = Rate 250 g/ha, Pre-emergence (flood test species), scale 0 to 10, 0 is no effect, 10 is complete control
[11] = Rate 500 g/ha, Pre-emergence section of Table B, 0 to 10 scale (0 no effect, 10 complete control)

CC(C)N(C(=O)n1oc(=O)n(CC(C)[N+](=O)[O-])c1=O)c1ccccc1 (stereo not drawn) [Compound 604]
2: Plant response rating, Giant foxtail (giant foxtail; [2]) | Giant foxtail plant response rating (giant foxtail; [6]) | Morningglory plant response rating (morningglory; [3]) | Plant response rating, Morningglory (morningglory; [4])
3: Crabgrass plant response rating (crabgrass; [3]) | Plant response rating, Crabgrass (crabgrass; [4]) | Giant foxtail plant response rating (giant foxtail; [3])
1: Plant response rating, Crabgrass (crabgrass; [1]) | Plant response rating, Crabgrass (crabgrass; [7]) | Plant response rating, Giant foxtail (giant foxtail; [1]) | Plant response rating, Morningglory (morningglory; [2]) | Plant response rating, Soybean (soybean; [2]) | Soybean plant response rating (soybean; [3]) | Plant response rating, Soybean (soybean; [4])
0: Bedstraw plant response rating (0 to 10 scale) (bedstraw; Rate 250 g/ha) | Bedstraw plant response rating (bedstraw; Rate 500 g/ha, scale of 0 to 10 where 0 is no effect and 10 is complete control) | Plant response rating, Blackgrass (blackgrass; [1]) | Plant response rating, Blackgrass (blackgrass; [2]) | Blackgrass plant response rating (blackgrass; [3]) | Plant response rating, Blackgrass (blackgrass; [4]) | Blackgrass plant response rating (blackgrass; [5]) | Blackgrass plant response rating (blackgrass; [6]) | Blackgrass plant response rating (0 to 10 scale) (blackgrass; Preemergence, Rate 250 g/ha) | Blackgrass plant response rating (blackgrass; [7]) | Plant response rating, B. signalgrass (surinam grass; [1]) | Plant response rating, B. signalgrass (surinam grass; [2]) | B. signalgrass plant response rating (surinam grass; [3]) | Plant response rating, B. signalgrass (surinam grass; [4]) | B. signalgrass plant response rating (surinam grass; [5]) | B. signalgrass plant response rating (surinam grass; [6]) | B. signalgrass plant response rating (0 to 10 scale, 0 is no effect, 10 is complete control) (surinam grass; Preemergence, Rate 250 g/ha) | B. signalgrass plant response rating (surinam grass; [7]) | Plant response rating, Cocklebur (cocklebur; [1]) | Plant response rating, Cocklebur (cocklebur; [2]) | Cocklebur plant response rating (cocklebur; [3]) | Plant response rating, Cocklebur (cocklebur; [4]) | Cocklebur plant response rating (cocklebur; [5]) | Cocklebur plant response rating (cocklebur; [6]) | Cocklebur plant response rating (0 to 10 scale) (cocklebur; Preemergence, Rate 250 g/ha) | Plant response rating, Cocklebur (cocklebur; [7]) | Plant response rating, Corn (corn; [1]) | Plant response rating, Corn (corn; [2]) | Corn plant response rating (corn; [3]) | Plant response rating, Corn (corn; [4]) | Corn plant response rating (corn; [5]) | Corn plant response rating (corn; [6]) | Corn plant response rating (0 to 10 scale) (corn; Preemergence, Rate 250 g/ha) | Plant response rating, Corn (corn; [7]) | Crabgrass plant response rating (crabgrass; [5]) | Crabgrass plant response rating (crabgrass; [6]) | Giant foxtail plant response rating (giant foxtail; [5]) | Plant response rating, Morningglory (morningglory; [1]) | Morningglory plant response rating (morningglory; [5]) | Morningglory plant response rating (morningglory; [6]) | Plant response rating, Morningglory (morningglory; [7]) | Plant response rating, Redroot pigweed (pigweed; [1]) | Plant response rating, Redroot pigweed (pigweed; [2]) | Redroot pigweed plant response rating (pigweed; [3]) | Plant response rating, Redroot pigweed (pigweed; [4]) | Redroot pigweed plant response rating (pigweed; [5]) | Redroot pigweed plant response rating (pigweed; [6]) | Plant response rating, Redroot pigweed (pigweed; [7]) | Plant response rating, Rape (rape; [1]) | Plant response rating, Rape (rape; [2]) | Rape plant response rating (rape; [3]) | Plant response rating, Rape (rape; [4]) | Rape plant response rating (rape; [5]) | Rape plant response rating (rape; [6]) | Plant response rating, Rape (rape; [7]) | Plant response rating, Soybean (soybean; [1]) | Soybean plant response rating (soybean; [5]) | Soybean plant response rating (soybean; [6]) | Plant response rating, Soybean (soybean; [7]) | Plant response rating, Sugarbeets (sugar beet; [1]) | Plant response rating, Sugarbeets (sugar beet; [2]) | Sugarbeets plant response rating (sugar beet; [3]) | Plant response rating, Sugarbeets (sugar beet; [4]) | Sugarbeets plant response rating (sugar beet; [5]) | Sugarbeets plant response rating (sugar beet; [6]) | Plant response rating, Sugarbeets (sugar beet; [7]) | Plant response rating, Velvetleaf (velvetleaf; [1]) | Plant response rating, Velvetleaf (velvetleaf; [2]) | Velvetleaf plant response rating (velvetleaf; [3]) | Plant response rating, Velvetleaf (velvetleaf; [4]) | Velvetleaf plant response rating (velvetleaf; [5]) | Velvetleaf plant response rating (velvetleaf; [6]) | Plant response rating, Velvetleaf (velvetleaf; [7]) | Plant response rating, Wheat (wheat; [1]) | Plant response rating, Wheat (wheat; [2]) | Wheat plant response rating (wheat; [3]) | Plant response rating, Wheat (wheat; [4]) | Wheat plant response rating (wheat; [5]) | Wheat plant response rating (wheat; [6]) | Plant response rating, Wheat (wheat; [7]) | Plant response rating, Wild oats (wild oat; [1]) | Plant response rating, Wild oats (wild oat; [2]) | Wild oats plant response rating (wild oat; [3]) | Plant response rating, Wild oats (wild oat; [4]) | Wild oats plant response rating (wild oat; [5]) | Wild oats plant response rating (wild oat; [6]) | Plant response rating, Wild oats (wild oat; [7]) | Plant response rating, Nutsedge (purple nutsedge; [1]) | Plant response rating, Nutsedge (purple nutsedge; [2]) | Nutsedge plant response rating (purple nutsedge; [3]) | Plant response rating, Nutsedge (purple nutsedge; [4]) | Nutsedge plant response rating (purple nutsedge; [5]) | Nutsedge plant response rating (purple nutsedge; [6]) | Plant response rating, Nutsedge (purple nutsedge; [7]) | Plant response rating, Rice (0 to 10 scale, 0 is no effect, 10 is complete control) (rice; [8]) | Rice plant response rating (0 to 10 scale, 0 is no effect, 10 is complete control) (rice; [9]) | Rice plant response rating (rice; [10]) | Rice plant response rating (rice; [11]) | Plant response rating, S. Flatsedge (0 to 10 scale, 0 is no effect, 10 is complete control) (smallflower flatsedge; [8]) | S. Flatsedge plant response rating (0 to 10 scale, 0 is no effect, 10 is complete control) (smallflower flatsedge; [9]) | S. Flatsedge plant response rating (smallflower flatsedge; [10]) | S. Flatsedge plant response rating (smallflower flatsedge; [11]) | Plant response rating, Ducksalad (0 to 10 scale, 0 is no effect, 10 is complete control) (duck salad; [8]) | Ducksalad plant response rating (0 to 10 scale, 0 is no effect, 10 is complete control) (duck salad; [9]) | Ducksalad plant response rating (duck salad; [10]) | Ducksalad plant response rating (duck salad; [11]) | Plant response rating, Barnyardgrass (0 to 10 scale, 0 is no effect, 10 is complete control) (bamyardgrass; [8]) | Barnyardgrass plant response rating (0 to 10 scale, 0 is no effect, 10 is complete control) (bamyardgrass; [9]) | Barnyardgrass plant response rating (bamyardgrass; [10]) | Barnyardgrass plant response rating (bamyardgrass; [11])
7: Plant response rating, Giant foxtail (giant foxtail; [7])
4: Plant response rating, Giant foxtail (giant foxtail; [4])
